Patent US4435574A, “2,6-Dimethyl-3,5-dicarbomethoxy-4-(ortho -di-fluoromethylthiophenyl)-1,4-dihydropyridine” (priority 1981, dated 1984)
“And” between values parts separate entries of the source, which are not always exact repeats. Equal entries are not always repeated. “Also recorded” adds a separate entry of the source. Where two headings read alike, the source gives them in different places.

What was measured:
[1] = tested on: arterial blood pressure of anesthetized cats; test: Reduction of arterial blood pressure by 30 percent (ED30) in anesthetized cats; assay type: in vivo; conditions: for ED30: Felis catus, read-out: ED30 (effective dose that reduces arterial blood pressure by 30 percent)
[2] = tested on: spontaneously hypertensive rats; test: Systolic arterial pressure in awake spontaneously hypertensive female rats of the Okamoto-Aoki line, intragastric; assay type: in vivo; conditions: for Hypotensive effect, %, upon administration to spontaneously hypertensive rats: into the stomach
Experimental: Investigation of the pharmacological action of 2,6-dimethyl-3,5-dicarbomethoxy-4-(o-difluoromethylthiophenyl)-1,4-dihydropyridine upon parameters characterizing the performance of the cardiovascular system has been carried out in anesthetized cats, as well as in rats.
In the conditions as stated above, the proposed compound exceeded the SKF-24260 compound approximately 3 times with respect to both hypotensive activity and active period (see Table 1).
24 hours after administration of the proposed compound in a dose of 10 mg/kg, the systolic arterial pressure was down by a further 21.4±2.7%.

[3] = Acute toxicity in breedless white mice, intraperitoneal; assay type: in vivo; conditions: mouse, in vivo, ip; intraperitoneal administration to white mice
From the text: (§1) In experiments carried out in breedless white mice, the proposed compound, administered intraperitoneally, has been investigated for acute toxicity.

[4] = tested on: arterial blood pressure of anesthetized cats; conditions: prior-art compound, in words; cited from earlier work
white mice [5] = conditions: prior-art compound, in words; cited from earlier work
coronary blood flow [6] = test: Volume rate of the coronary blood flow in anesthetized cats, intravenous; assay type: in vivo; conditions: for Effective period / Increase in coronary blood flow: intravenous
coronary blood flow [7] = conditions: prior-art compound, in words; cited from earlier work
[8] = prior-art compound, in words; cited from earlier work
white mice [9] = test: Acute toxicity in breedless white mice, intraperitoneal; assay type: in vivo; conditions: in words
From the text: as §1

Light stability = assay type: physicochemical; conditions: in words
Solubility = assay type: physicochemical

In the case of `CCOC(=O)C1=C(C)NC(C)=C(C(=O)OCC)C1c1ccccc1C(F)(F)F` [SKF-24260, 2,6-dimethyl-3,5-dicarbothoxy-4-(o-trifluoromethylphenyl)-1,4-dihydropyridine, reference compound], the ED30 [1] is reported as 0.022 mg/kg, the “Systolic arterial pressure after 24 hours” value ([2]; 10 mg/kg, 24 hours, result in words) is reported as “return to the initial value or increase above the initial level; also recorded: Initial” and the “Hypotensive effect, %, upon administration to spontaneously hypertensive rats” value (“Hypotensive effect, %” for short) ([2]; after 6 hours, 1 mg/kg) is reported as 6.0%. The “Hypotensive effect, %” value ([2]; after 6 hours, 10 mg/kg) was 15.8%, the LD50 [3] was 38.5 mg/kg and the “Duration of hypotensive effect” value [4] was “short duration”. For the same compound, the Hypotensive activity [4] was “appreciable hypotensive activity” and the Toxicity (white mice [5]) was “high toxicity”.

In the case of `COC(=O)C1=C(C)NC(C)=C(C(=O)OC)C1c1ccccc1[N+](=O)[O-]` [Adalate, 2,6-dimethyl-3,5-dicarbomethoxy-4-(o-nitrophenyl)-1,4-dihydropyridine, reference compound], the Effective period (coronary blood flow [6]; 0.05 mg/kg) is listed as 35 min, the “Increase in coronary blood flow” value (coronary blood flow [6]; 0.05 mg/kg) is listed as 90% and the Coronarodilating activity (coronary blood flow [7]) is listed as “high coronarodilating activity”. For the same compound, the Sensitivity to light [8] was “highly sensitive to light, decomposing rapidly in the presence of light”.

With `COC(=O)C1=C(C)NC(C)=C(C(=O)OC)C1c1ccccc1SC(F)F` [Proposed compound, 2,6-dimethyl-3,5-dicarbomethoxy-4-(o-difluoromethylthiophenyl)-1,4-dihydropyridine] the ED30 [1] was 0.019 mg/kg, the “Hypotensive effect compared with SKF-24260” value ([1]; acute experiments, 50% aqueous dimethylacetamide, in words) was “same hypotensive effect” and the Systolic arterial pressure ([2]; 1 mg/kg and 10 mg/kg into the stomach, in words) was “dropped considerably”. For the same compound, the “Hypotensive effect, %” value ([2]; after 6 hours, 1 mg/kg) was 19.5%, the “Hypotensive effect, %” value ([2]; after 6 hours, 10 mg/kg) was 54.8% and the “Hypotensive effect, %” value ([2]; after 24 hours, 10 mg/kg, 10 mg/kg) was 21.4±2.7% and 21.4%. The “Duration of hypotensive activity” value ([2]; in words) was “prolonged duration; also recorded: highly prolonged hypotensive activity”, the “Duration of hypotensive action (active period) relative to SKF-24260” value ([2]; spontaneously hypertensive rats) was “approximately 3 times” and the LD50 [3] was 93 mg/kg. For the same compound, the Toxicity (white mice [9]) was “low toxicity”, the “Toxicity compared with SKF-24260” value (white mice [9]; intraperitoneal, mice) was “considerably lower; also recorded: considerably less toxic” and the Effective period (coronary blood flow [6]; 0.05 mg/kg) was 30 min. The “Increase in coronary blood flow” value (coronary blood flow [6]; 0.05 mg/kg) was 103%, the Effective period (coronary blood flow [6]; 0.1 mg/kg) was 65 min and the “Increase in coronary blood flow” value (coronary blood flow [6]; 0.1 mg/kg) was 150%. For the same compound, the Coronarodilating effect (coronary blood flow [6]; in words) was “pronounced coronarodilatory action; also recorded: capable of producing a coronarodilating effect”, the “Coronarodilating effect compared with Adalate” value (coronary blood flow [6]; in words) was “comparable with that of Adalate; also recorded: comparable with the coronarodilatory action of Adalate” and the Sensitivity to light (Light stability) was “light-resistant”. For the same compound, the “Solubility in organic solvents” value (Solubility; organic solvents) was “soluble in organic solvents” and the Solubility in water (Solubility; water) was “insoluble in water”.
